For this test, the system named is Gardner 6C3HED lymphosarcoma ip, C3AKF1 mice, survival T/C. Kind of test: NCI In Vivo Anticancer Drug Screen. Data for tumor model Lymphosarcoma Gardner 6C3HED (intraperitoneal) in C3AKF1 (CHKRF1) mice. The following applies: endpoint: survival time, mean or median, schedule: Q01DX010 (ip), higher = longer survival. How it is done:
The antitumor activity of compounds was measured in mice bearing transplantable tumors. Survival or tumor size were measured and the results are expressed as the measurement made in the treated group (T) divided by the measurement made in the vehicle treated control group (C). The tumor model used in this assay is Lymphosarcoma Gardner 6C3HED (intraperitoneal) in C3AKF1 (CHKRF1) mice

Setting [1] is: dose: 0.13 mg/kg/injection, vehicle: saline.
Setting [2] is: dose: 0.25 mg/kg/injection, vehicle: saline.
[3] abbreviates: dose: 0.5 mg/kg/injection, vehicle: saline.
Setting [4] is: dose: 1.0 mg/kg/injection, vehicle: saline.
Where [5] appears, read: dose: 4.0 mg/kg/injection, vehicle: saline.
Setting [6] is: dose: 25.0 mg/kg/injection, vehicle: saline.
The mark [7] stands for this setting: dose: 2.5 mg/kg/injection, vehicle: saline.
[8] abbreviates: dose: 5.0 mg/kg/injection, vehicle: saline.
Where [9] appears, read: dose: 6.25 mg/kg/injection, vehicle: saline.
The mark [10] stands for this setting: dose: 150.0 mg/kg/injection, vehicle: saline.
Where [11] appears, read: dose: 62.5 mg/kg/injection, vehicle: saline.
[12] abbreviates: dose: 125.0 mg/kg/injection, vehicle: saline.
[13] abbreviates: dose: 10.0 mg/kg/injection, vehicle: saline.
The mark [14] stands for this setting: dose: 20.0 mg/kg/injection, vehicle: saline.
The mark [15] stands for this setting: dose: 40.0 mg/kg/injection, vehicle: saline.
[16] abbreviates: dose: 2.0 mg/kg/injection, vehicle: saline.
Setting [17] is: dose: 250.0 mg/kg/injection, vehicle: saline.
The mark [18] stands for this setting: dose: 500.0 mg/kg/injection, vehicle: saline.
[19] abbreviates: dose: 60.0 mg/kg/injection, vehicle: saline.
The mark [20] stands for this setting: dose: 8.0 mg/kg/injection, vehicle: saline.

Where “and” joins values, the source holds several entries; their conditions need not be identical. Equal values may be shown once. Inconclusive results and toxic doses are left out.

For the compound `CSCS(=O)C[C@H](CO)NC(=O)/C=C/c1c(C)[nH]c(=O)[nH]c1=O` (stereo partly drawn), the T/C runs as follows: under setting [1], 87 % of control; under setting [2], 90 % of control; under setting [3], 90 % of control and 91 % of control.

Consider `NC(=O)N(CCCl)N=O`, for which the T/C reads like this: under setting [3], 150 % of control and 204 % of control; under setting [4], 250 % of control and 254 % of control; under setting [5], 86 % of control.

For the compound `O=C1C(NC(=O)C2CCCCC2)=C(N2CC2)C(=O)C(NC(=O)C2CCCCC2)=C1N1CC1`, the T/C reads like this: under setting [6], 92 % of control; (dose: 50.0 mg/kg/injection, vehicle: saline) 92 % of control.

For `Oc1cc(CN(CCCl)CCCl)c(O)cc1CN(CCCl)CCCl`, the T/C by setting is: (dose: 0.63 mg/kg/injection, vehicle: saline) 113 % of control; under setting [7], 168 % of control; under setting [8], 91 % of control and 122 % of control.

As to `N=[N+]=CC(=O)OCC(N)C(=O)O` (stereo not drawn), the T/C under setting [9] is 150 % of control and the T/C under setting [6] was 95 % of control.

In the case of `CS(=O)(=O)OCCCl`, the T/C by setting is: (dose: 18.8 mg/kg/injection, vehicle: saline) 100 % of control; (dose: 37.5 mg/kg/injection, vehicle: saline) 100 % of control; (dose: 75.0 mg/kg/injection, vehicle: saline) 95 % of control; under setting [10], 100 % of control.

Consider `CCn1cnc2c(=S)nc[nH]c21`, for which the T/C runs as follows: (dose: 15.6 mg/kg/injection, vehicle: saline) 91 % of control and 104 % of control; (dose: 31.3 mg/kg/injection, vehicle: saline) 87 % of control and 89 % of control and 104 % of control; under setting [11], 114 % of control; under setting [12], 87 % of control and 104 % of control.

`N#[N+]c1cnc([O-])[nH]c1=O`: the T/C reads like this: under setting [7], 175 % of control; under setting [8], 158 % of control; under setting [13], 162 % of control.

Turning to `Cn1c(N)nc2nc[nH]c2c1=S`, the T/C is, setting by setting: under setting [13], 96 % of control; under setting [14], 96 % of control; under setting [15], 107 % of control; (dose: 80.0 mg/kg/injection, vehicle: saline) 107 % of control.

As to `C=CC(CN1CC1)OC(C)=O` (stereo not drawn), under setting [16], the T/C is 92 % of control.

Consider `O=C(Nc1ccc(C2=NCCN2)cc1)c1ccc(C(=O)Nc2ccc(C3=NCCN3)cc2)c(Cl)c1`, for which the T/C by setting is: (dose: 2.0 mg/kg/injection, vehicle: other) 116 % of control; (dose: 4.0 mg/kg/injection, vehicle: other) 150 % of control and 159 % of control; (dose: 8.0 mg/kg/injection, vehicle: other) 225 % of control and 245 % of control; (dose: 16.0 mg/kg/injection, vehicle: other) 216 % of control and 268 % of control; (dose: 32.0 mg/kg/injection, vehicle: other) 191 % of control and 200 % of control.

For `CC[C@]1(O)C[C@H]2CN(CCc3c([nH]c4ccccc34)[C@@](C(=O)OC)(c3cc4c(cc3OC)N(C=O)[C@H]3[C@@](O)(C(=O)OC)[C@H](OC(C)=O)[C@]5(CC)C=CCN6CC[C@]43[C@@H]65)C2)C1`, the T/C was 250 % of control (dose: 0.12 mg/kg/injection, vehicle: saline); 285 % of control and 300 % of control under setting [1].

Take `CS(=O)(=O)OCCN(CCOS(C)(=O)=O)c1ccc(N=O)cc1`: under setting [4], the T/C is 107 % of control.

For `OCC1OC(n2cnc3c(Cl)ncnc32)C(O)C1O` (stereo not drawn), the T/C reads like this: under setting [11], 95 % of control; under setting [12], 90 % of control; under setting [17], 90 % of control; under setting [18], 90 % of control and 100 % of control.

As to `CN(C)c1ccc(/C=C/c2ccnc3ccccc23)cc1`, the T/C under setting [8] is 96 % of control, the T/C under setting [13] was 92 % of control and the T/C under setting [14] was 92 % of control.

Take `O=NN(CCCl)C(=O)NCCCl`: the T/C was 300 % of control under setting [9] and 257 % of control (dose: 16.25 mg/kg/injection, vehicle: saline).

As for `C[C@H](N)C(=O)N[C@@H]1[C@H]2C(=C(O)C[C@@H](O)[C@@H]2O)C(=O)O[C@@H]1C`, the T/C by setting is: under setting [10], 110 % of control; (dose: 300.0 mg/kg/injection, vehicle: saline) 110 % of control and 115 % of control; (dose: 600.0 mg/kg/injection, vehicle: saline) 120 % of control; (dose: 1200.0 mg/kg/injection, vehicle: saline) 115 % of control and 120 % of control.

As to `N#CCSc1ncnc2nc[nH]c12`, the T/C was 100 % of control and 111 % of control (dose: 15.0 mg/kg/injection, vehicle: saline); 100 % of control (dose: 30.0 mg/kg/injection, vehicle: saline); 95 % of control and 114 % of control under setting [19]; 92 % of control and 95 % of control (dose: 120.0 mg/kg/injection, vehicle: saline).

Consider `O=c1cnn(C2OC(CO)C(O)C2O)c(=O)[nH]1` (stereo not drawn), for which the T/C (dose: 200.0 mg/kg/injection, vehicle: saline) is 105 % of control and 115 % of control; the T/C (dose: 400.0 mg/kg/injection, vehicle: saline) was 115 % of control; the T/C (dose: 800.0 mg/kg/injection, vehicle: saline) is 110 % of control and 120 % of control; the T/C (dose: 1600.0 mg/kg/injection, vehicle: saline) was 95 % of control.

Consider `CN(N=O)C(=O)NC(C=O)C(O)C(O)C(O)CO` (stereo not drawn), for which the T/C under setting [15] was 300 % of control; the T/C under setting [19] was 300 % of control; the T/C (dose: 135.0 mg/kg/injection, vehicle: saline) is 95 % of control and 100 % of control.

On to `C1CN1c1nc(N2CC2)nc(N2CC2)n1`, for which the T/C runs as follows: under setting [1], 100 % of control and 105 % of control; under setting [2], 110 % of control and 115 % of control; under setting [3], 120 % of control; under setting [4], 95 % of control; (dose: 1.5 mg/kg/injection, vehicle: saline) 110 % of control.

`CC(=O)N(C)C`: the T/C by setting is: under setting [11], 86 % of control and 90 % of control; under setting [12], 90 % of control and 95 % of control; under setting [17], 95 % of control and 100 % of control; under setting [18], 100 % of control.

Regarding `O=C(Nc1ccc(C2=NCCN2)cc1)c1ccc(C(=O)Nc2ccc(C3=NCCN3)cc2)c([N+](=O)[O-])c1`, the T/C is 218 % of control and 272 % of control (dose: 6.0 mg/kg/injection, vehicle: saline); 300 % of control under setting [20]; 268 % of control and 300 % of control (dose: 12.0 mg/kg/injection, vehicle: saline); 163 % of control and 259 % of control (dose: 18.0 mg/kg/injection, vehicle: saline).

Take `NC(Cc1c[nH]c2ccc(N(CCCl)CCCl)cc12)C(=O)O` (stereo not drawn): the T/C reads like this: under setting [3], 159 % of control; under setting [4], 159 % of control and 181 % of control; under setting [16], 195 % of control and 231 % of control.

As to `CCOC(N)=O`, the T/C under setting [12] is 91 % of control and 100 % of control; the T/C under setting [18] was 95 % of control.

Take `CC(CCC(C)OS(C)(=O)=O)OS(C)(=O)=O` (stereo not drawn): the T/C is, setting by setting: under setting [16], 100 % of control; under setting [5], 104 % of control; under setting [20], 104 % of control; (dose: 16.0 mg/kg/injection, vehicle: saline) 116 % of control.

For the origin of these results see PubChem BioAssay AID232 (DTP/NCI, 2004).
